Test results published in ChEMBL document CHEMBL1697781, “Assessment of the health effects of chemicals in humans: II. Construction of an adverse effects database for QSAR modeling” (Curr Drug Discov Technol, 2004).

Test system: Hepatotoxicity
Assay: FDA HLAED, liver enzyme composite activity
Details: human

Row | Structure (SMILES) | Composite Activity - Active | Composite Activity - Marginal | Composite Activity - Active (Liver) | Composite Activity - Marginal (Liver)
1 | CC(=O)O.C[C@H]1C[C@@H]2[C@H]([C@@H](O)C[C@@]3(C)[C@H]2CC[C@]3(O)C(=O)CO)[C@@]2(C)C=CC(=O)C=C12 | 0 | 0 | – | –
2 | FC(F)OC(F)(F)C(F)Cl (stereo not drawn) | 0 | 0 | – | –
3 | N[C@@H](Cc1ccc(N(CCCl)CCCl)cc1)C(=O)O | 0 | 0 | – | –
4 | NC12CC3CC(CC(C3)C1)C2 [AMANTADINE] | 0 | 0 | – | –
5 | NCCCCCC(=O)O [AMINOCAPROIC ACID] | 0 | 0 | – | –
6 | CN(C)CCC=C1c2ccccc2CCc2ccccc21 [AMITRIPTYLINE] | 0 | 0 | – | –
7 | C[C@@H]1[C@H](O)[C@@H](C)/C=C/C=C/C=C/C=C/C=C/C=C/C=C/[C@H](O[C@@H]2O[C@H](C)[C@@H](O)[C@H](N)[C@@H]2O)C[C@@H]2O[C@](O)(C[C@@H](O)C[C@@H](O)[C@H](O)CC[C@@H](O)C[C@@H](O)CC(=O)O[C@H]1C)C[C@H](O)[C@H]2C(=O)O [AMPHOTERICIN B] | 0 | 0 | – | –
8 | CC(=O)Oc1ccccc1C(=O)O [ASPIRIN] | 0 | 0 | – | –
9 | CN1[C@@H]2CC[C@H]1C[C@@H](OC(c1ccccc1)c1ccccc1)C2 [BENZTROPINE] | 0 | 0 | – | –
10 | CC(=O)OCC(=O)[C@@]1(O)[C@@H](C)C[C@H]2[C@@H]3CCC4=CC(=O)C=C[C@]4(C)[C@@]3(F)[C@@H](O)C[C@@]21C [BETAMETHASONE ACETATE] | 0 | 0 | – | –
11 | CC(=O)OCC(=O)[C@@]1(OC(=O)C(C)C)[C@@H](C)C[C@H]2[C@@H]3CCC4=CC(=O)C=C[C@]4(C)[C@@]3(F)[C@@H](O)C[C@@]21C [BETAMETHASONE ACIBUTATE] | 0 | 0 | – | –
12 | C[C@H]1C[C@H]2[C@@H]3CCC4=CC(=O)C=C[C@]4(C)[C@@]3(F)[C@@H](O)C[C@]2(C)[C@@]1(OC(=O)c1ccccc1)C(=O)CO [BETAMETHASONE BENZOATE] | 0 | 0 | – | –
13 | CCCC(=O)O[C@]1(C(=O)COC(=O)CC)[C@@H](C)C[C@H]2[C@@H]3CCC4=CC(=O)C=C[C@]4(C)[C@@]3(F)[C@@H](O)C[C@@]21C [BETAMETHASONE BUTYRATE PROPIONATE] | 0 | 0 | – | –
14 | CCC(=O)OCC(=O)[C@@]1(OC(=O)CC)[C@@H](C)C[C@H]2[C@@H]3CCC4=CC(=O)C=C[C@]4(C)[C@@]3(F)[C@@H](O)C[C@@]21C [BETAMETHASONE DIPROPIONATE] | 0 | 0 | – | –
15 | CCCCC(=O)O[C@]1(C(=O)CO)[C@@H](C)C[C@H]2[C@@H]3CCC4=CC(=O)C=C[C@]4(C)[C@@]3(F)[C@@H](O)C[C@@]21C [BETAMETHASONE VALERATE] | 0 | 0 | – | –
16 | C[C@H]1C[C@H]2[C@@H]3CCC4=CC(=O)C=C[C@]4(C)[C@@]3(F)[C@@H](O)C[C@]2(C)[C@@]1(O)C(=O)CO [BETAMETHASONE] | 0 | 0 | – | –
17 | CS(=O)(=O)OCCCCOS(C)(=O)=O [BUSULFAN] | 0 | 0 | – | –
18 | Cc1nnc(SCC2=C(C(=O)O)N3C(=O)[C@@H](NC(=O)Cn4cnnn4)[C@H]3SC2)s1 [CEFAZOLIN] | 0 | 0 | – | –
19 | CC1=C(C(=O)O)N2C(=O)[C@@H](NC(=O)[C@H](N)c3ccccc3)[C@H]2SC1 [CEPHALEXIN ANHYDROUS] | – | – | 0 | 0
20 | CN1C(=O)CCS(=O)(=O)C1c1ccc(Cl)cc1 (stereo not drawn) [CHLORMEZANONE] | 0 | 0 | – | –
21 | O=C(O)C1N=C(c2ccccc2)c2cc(Cl)ccc2NC1=O (stereo not drawn) [CLORAZEPIC ACID] | 0 | 0 | – | –
22 | CN(C)CCC=C1c2ccccc2C=Cc2ccccc21 [CYCLOBENZAPRINE] | – | – | 0 | 0
23 | O=C1CN(/N=C/c2ccc(-c3ccc([N+](=O)[O-])cc3)o2)C(O)=N1 [DANTROLENE] | 0 | 0 | – | –
24 | CC(=O)OCC(=O)[C@@]1(OC(=O)c2ccco2)[C@H](C)C[C@H]2[C@@H]3CCC4=CC(=O)C=C[C@]4(C)[C@@]3(F)[C@@H](O)C[C@@]21C [DEXAMETHASONE ACEFURATE] | 0 | 0 | – | –
25 | CC(=O)OCC(=O)[C@@]1(O)[C@H](C)C[C@H]2[C@@H]3CCC4=CC(=O)C=C[C@]4(C)[C@@]3(F)[C@@H](O)C[C@@]21C [DEXAMETHASONE ACETATE] | 0 | 0 | – | –
26 | CCC(=O)OCC(=O)[C@@]1(OC(=O)CC)[C@H](C)C[C@H]2[C@@H]3CCC4=CC(=O)C=C[C@]4(C)[C@@]3(F)[C@@H](O)C[C@@]21C [DEXAMETHASONE DIPROPIONATE] | 0 | 0 | – | –
27 | CCCCC(=O)O[C@]1(C(=O)CO)[C@H](C)C[C@H]2[C@@H]3CCC4=CC(=O)C=C[C@]4(C)[C@@]3(F)[C@@H](O)C[C@@]21C [DEXAMETHASONE VALARATE] | 0 | 0 | – | –

Row | Structure (SMILES) | Composite Activity - Active | Composite Activity - Marginal | Composite Activity - Active (Liver) | Composite Activity - Marginal (Liver)
28 | C[C@@H]1C[C@H]2[C@@H]3CCC4=CC(=O)C=C[C@]4(C)[C@@]3(F)[C@@H](O)C[C@]2(C)[C@@]1(O)C(=O)CO [DEXAMETHASONE] | 0 | 0 | – | –
29 | CN1C(=O)CN=C(c2ccccc2)c2cc(Cl)ccc21 [DIAZEPAM] | – | – | 0 | 0
30 | CC(C)N(CCC(C(N)=O)(c1ccccc1)c1ccccn1)C(C)C (stereo not drawn) [DISOPYRAMIDE] | 0 | 0 | – | –
31 | COc1cccc2c1C(=O)c1c(O)c3c(c(O)c1C2=O)C[C@@](O)(C(=O)CO)C[C@@H]3O[C@H]1C[C@H](N)[C@H](O)[C@H](C)O1 [DOXORUBICIN] | 0 | 0 | – | –
32 | CC[C@@H](CO)NCCN[C@@H](CC)CO [ETHAMBUTOL] | 0 | 0 | – | –
33 | CCc1cc(C(N)=S)ccn1 [ETHIONAMIDE] | – | – | 0 | 0
34 | CCNC(C)Cc1cccc(C(F)(F)F)c1 (stereo not drawn) [FENFLURAMINE] | 0 | 0 | – | –
35 | O=c1[nH]c(=O)n([C@H]2C[C@H](O)[C@@H](CO)O2)cc1F [FLOXURIDINE] | 0 | 0 | – | –
36 | Nc1nc(=O)[nH]cc1F [FLUCYTOSINE] | 0 | 0 | – | –
37 | CCCCCCCCCC(=O)OCCN1CCN(CCCN2c3ccccc3Sc3ccc(C(F)(F)F)cc32)CC1 [FLUPHENAZINE DECANOATE] | 0 | 0 | – | –
38 | CCCCCCC(=O)OCCN1CCN(CCCN2c3ccccc3Sc3ccc(C(F)(F)F)cc32)CC1 [FLUPHENAZINE ENANTHATE] | 0 | 0 | – | –
39 | OCCN1CCN(CCCN2c3ccccc3Sc3ccc(C(F)(F)F)cc32)CC1 [FLUPHENAZINE] | 0 | 0 | – | –
40 | O=C(CCCN1CCC(O)(c2ccc(Cl)cc2)CC1)c1ccc(F)cc1 [HALOPERIDOL] | 0 | 0 | – | –
41 | NS(=O)(=O)c1cc2c(cc1Cl)NCNS2(=O)=O [HYDROCHLOROTHIAZIDE] | 0 | 0 | – | –
42 | NC(=O)NO [HYDROXYUREA] | 0 | 0 | – | –
43 | OCCOCCN1CCN(C(c2ccccc2)c2ccc(Cl)cc2)CC1 (stereo not drawn) [HYDROXYZINE] | 0 | 0 | – | –
44 | COC(=O)Nc1nc2ccc(C(=O)c3ccccc3)cc2[nH]1 [MEBENDAZOLE] | 0 | 0 | – | –
45 | CC(=O)O[C@]1(C(C)=O)CC[C@H]2[C@@H]3C[C@H](C)C4=CC(=O)CC[C@]4(C)[C@H]3CC[C@@]21C [MEDROXYPROGESTERONE ACETATE] | 0 | 0 | – | –
46 | CC(=O)O[C@]1(C(C)=O)CC[C@H]2[C@@H]3C=C(C)C4=CC(=O)CC[C@]4(C)[C@H]3CC[C@@]21C [MEGESTROL ACETATE] | 0 | 0 | – | –
47 | C#C[C@]1(O)CC[C@H]2[C@@H]3CCc4cc(OC)ccc4[C@H]3CC[C@@]21C [MESTRANOL] | 0 | 0 | – | –
48 | C=CCC1(C(C)C#CCC)C(=O)N=C(O)N(C)C1=O (stereo not drawn) [METHOHEXITAL] | 0 | 0 | – | –
49 | C[C@](N)(Cc1ccc(O)c(O)c1)C(=O)O [METHYLDOPA] | 0 | 0 | – | –
50 | C[C@H]1C[C@@H]2[C@H]([C@@H](O)C[C@@]3(C)[C@H]2CC[C@]3(O)C(=O)COC(=O)CCCCCCC(=O)N(C)CCS(=O)(=O)O)[C@@]2(C)C=CC(=O)C=C12 [METHYLPREDNISOLONE 21-SULEPTANIC ACID ESTER] | 0 | 0 | – | –
51 | CCC(=O)O[C@]1(C(=O)COC(C)=O)CC[C@H]2[C@@H]3C[C@H](C)C4=CC(=O)C=C[C@]4(C)[C@H]3[C@@H](O)C[C@@]21C [METHYLPREDNISOLONE ACEPONATE] | 0 | 0 | – | –
52 | C[C@H]1C[C@@H]2[C@H]([C@@H](O)C[C@@]3(C)[C@H]2CC[C@]3(O)C(=O)COC(=O)CCC(=O)O)[C@@]2(C)C=CC(=O)C=C12 [METHYLPREDNISOLONE HEMISUCCINATE] | 0 | 0 | – | –
53 | C[C@H]1C[C@@H]2[C@H]([C@@H](O)C[C@@]3(C)[C@H]2CC[C@]3(O)C(=O)CO)[C@@]2(C)C=CC(=O)C=C12 [METHYLPREDNISOLONE] | 0 | 0 | – | –
54 | CC(C)(S)[C@@H](N)C(=O)O [PENICILLAMINE] | 0 | 0 | – | –
